ChEMBL document CHEMBL1125598, “HIV protease: a novel chemotherapeutic target for AIDS” (J Med Chem, 1991)
Where “and” joins values, the source holds several entries; their conditions need not be identical. Equal values may be shown once. Peptide text beside a SMILES is read from it.

Legend:
[1] = molecular target: T1, Human immunodeficiency virus type 1 protease (Human immunodeficiency virus 1, UniProt Q72874); test: The compound was tested for its affinity against HIV-1 protease
H9 [2] = test: Inhibitory activity against HIV-1 mB in H9 cells; Range 20-150 nM; type: functional, cell-based; details: Homo sapiens
[3] = Toxicity against HIV-1 mB in MT-4 cells; Range 10 to >100 uM; type: cell-based, MT4; details: human, read-out: TC50 (the source's name)
[4] = Toxicity against HIV-1 mB in H9 cells; Range 10 to >100 uM; type: cell-based; details: human, read-out: TC50 (the source's name)
MT4 = test: Inhibitory activity against HIV-1 mB in MT-4 cells; Range 20-150 nM; type: functional, cell-based; details: Homo sapiens
[5] = molecular target: T1, Human immunodeficiency virus type 1 protease; test: Binding affinity for HIV-1 protease
[6] = system: Human immunodeficiency virus 1; test: Concentration for prevention of spread of HIV infection; range 25-100 uM; type: functional, organism-based
JM1 = test: Antiviral activity in HIV-1GB8 infected JM cells; type: functional, cell-based; details: Homo sapiens
C8166 = test: Antiviral activity in HIV-1RF infected C8166 cells; type: functional, cell-based; details: Homo sapiens
H9 [7] = test: Inhibitory activity against HIV-1IIIb in H-9 cells using immunofluorescence; type: functional, Homo sapiens

CC(C)(C)OC(=O)C1CCCN1C[C@@H](O)[C@H](Cc1ccccc1)NC(=O)[C@H](CC(N)=O)NC(=O)OCc1ccccc1 (stereo partly drawn)
IC50 [1]: 140 nM

CC(C)[C@H](NC(=O)OCc1ccccc1)C(=O)N[C@@H](Cc1ccccc1)[C@H](O)[C@H](O)[C@H](Cc1ccccc1)NC(=O)[C@@H](NC(=O)OCc1ccccc1)C(C)C
IC50 (H9 [2]): 20 nM | IC50 [1]: 0.2 nM and < 0.4 nM | CC50 [3]: 10000 nM | CC50 [4]: 10000 nM | IC50 (MT4): 20 nM

COC(=O)[C@@H](NC(=O)[C@@H](NC(=O)CC[C@@H](O)[C@@H](Cc1ccccc1)NC(=O)[C@H](C)NC(=O)[C@H](C)N)C(C)C)C(C)C (HELM PEPTIDE1{A.A.[O=C(CC[C@@H](O)[C@@H](Cc1ccccc1)N[*:1])[*:2]].V.V.[CO[*:1]]}$$$$V2.0)
Ki [5]: 18 nM | Concentration [6]: 100 µM

CC(C)[C@H](NC(=O)[C@@H](NC(=O)[C@@H]1CCCN1C[C@H](Cc1ccccc1)NC(=O)[C@H](C)NC(=O)[C@H](C)NC(=O)[C@@H](N)CO)C(C)C)C(N)=O (HELM PEPTIDE1{S.A.A.[O=C([C@@H]1CCCN1C[C@H](Cc1ccccc1)N[*:1])[*:2]].V.V.[am]}$$$$V2.0)
IC50 [1]: 19000 nM

CC[C@H](C)[C@H](NC(=O)C1CCCN1C[C@H](C)[C@H](Cc1ccccc1)NC(=O)[C@H](CC(N)=O)NC(=O)[C@H](CC(C)C)NC(=O)[C@H](CO)NC(C)=O)C(=O)N[C@H](C(=O)OC)C(C)C (stereo partly drawn) (HELM PEPTIDE1{[ac].S.L.N.[C[C@@H](CN1CCCC1C(=O)[*:2])[C@H](Cc1ccccc1)N[*:1]].I.V.[CO[*:1]]}$$$$V2.0)
Ki [5]: 0.66 nM

CC[C@H](C)[C@H](NC(=O)[C@@H](C[C@H](O)[C@H](CC1CCCCC1)NC(=O)[C@H](C)NC(C)(C)C)C(C)C)C(=O)NCc1ccccn1
Ki [5]: 70 nM

CC[C@H](C)[C@H](NC(=O)[C@@H](C[C@H](O)[C@H](CC(C)C)NC(=O)[C@H](Cc1c[nH]cn1)NC(=O)[C@H](Cc1ccccc1)NC(=O)[C@@H]1CCCN1C(=O)[C@H](Cc1c[nH]cn1)NC(=O)OC(C)(C)C)C(C)C)C(=O)N[C@@H](Cc1c[nH]cn1)C(=O)O (HELM PEPTIDE1{[CC(C)(C)OC(=O)[*:2]].H.P.F.H.[CC(C)C[C@H](N[*:1])[C@@H](O)C[C@H](C(=O)[*:2])C(C)C].I.H}$$$$V2.0)
Ki [5]: 5 nM

CCCC[C@H](CN[C@H](CCCC)C(=O)N[C@@H](CCC(N)=O)C(=O)N[C@@H](CCCNC(=N)N)C(N)=O)NC(=O)[C@@H](NC(=O)[C@@H](NC(C)=O)[C@@H](C)O)[C@@H](C)CC
IC50 [1]: 780 nM

CC(C)[C@H](NC(=O)[C@@H](NC(=O)C1CCCN1CP(=O)(O)[C@@H](Cc1ccccc1)NC(=O)c1ccccc1)C(C)C)C(N)=O (stereo partly drawn)
Ki [5]: 450 nM

CC(C)[C@H](NC(=O)[C@@H](NC(=O)C(Cc1ccccc1)CP(=O)(O)[C@@H](Cc1ccccc1)NC(=O)c1ccccc1)C(C)C)C(N)=O (stereo partly drawn)
Ki [5]: 0.6 nM

CC[C@H](C)[C@H](NC(=O)[C@H](C(C)C)[C@@H](O)[C@H](O)[C@H](CC1CCCCC1)NC(=O)[C@H](Cc1c[nH]cn1)NC(=O)COc1cccc2ccccc12)C(=O)NCc1ccccn1
Ki [5]: < 1 nM

CC(C)(C)NC(=O)C1CCCCN1C[C@@H](O)[C@H](Cc1ccccc1)NC(=O)[C@H](CC(N)=O)NC(=O)c1ccc2ccccc2n1 (stereo partly drawn)
IC50 [1]: 2 nM

COC(=O)[C@@H](NC(=O)[C@@H](NC(=O)CCP(=O)(O)[C@@H](Cc1ccccc1)NC(=O)[C@H](C)NC(=O)[C@H](C)NC(=O)[C@@H](N)CO)C(C)C)C(C)C (HELM PEPTIDE1{S.A.A.[O=C(CCP(=O)(O)[C@@H](Cc1ccccc1)N[*:1])[*:2]].V.V.[CO[*:1]]}$$$$V2.0)
Ki [5]: 4400 nM

CC(C)C[C@H](NC(=O)[C@H](Cc1ccccc1)CP(=O)(O)[C@H](Cc1ccccc1)NC(=O)OC(C)(C)C)C(=O)N[C@@H](Cc1ccccc1)C(N)=O
IC50 [1]: 9 nM

CC[C@H](C)[C@H](NC(=O)[C@@H]1CCCN1C[C@H](Cc1ccccc1)NC(=O)[C@H](CC(N)=O)NC(=O)[C@H](CCC(N)=O)NC(=O)[C@H](CO)NC(=O)[C@@H](N)C(C)C)C(=O)N[C@H](C(=O)O)C(C)C (HELM PEPTIDE1{V.S.Q.N.[O=C([C@@H]1CCCN1C[C@H](Cc1ccccc1)N[*:1])[*:2]].I.V}$$$$V2.0)
IC50 [1]: 3.5 nM

CC(=O)N[C@@H](Cc1ccccc1)C(O)[C@H](Cc1ccccc1)NC(C)=O
IC50 [1]: > 10000 nM

CC(=O)N[C@@H](CO)C(=O)N[C@@H](CCC(N)=O)C(=O)N[C@@H](CC(N)=O)C(=O)N[C@@H](Cc1ccccc1)[C@@H](O)CC(=O)N[C@H](C(=O)N[C@H](C(N)=O)C(C)C)C(C)C (HELM PEPTIDE1{[ac].S.Q.N.[O=C(C[C@H](O)[C@H](Cc1ccccc1)N[*:1])[*:2]].V.V.[am]}$$$$V2.0)
Ki [5]: 39000 nM

CC(C)(C)NC(=O)[C@H]1C[C@@H]2CCCC[C@@H]2CN1C[C@@H](O)[C@H](Cc1ccccc1)NC(=O)[C@H](CC(N)=O)NC(=O)c1ccc2ccccc2n1
IC50 (JM1): 2.5 nM | IC50 (C8166): 2 nM

CC(C)[C@H](NC(=O)OCc1ccccc1)C(=O)N[C@@H](Cc1ccccc1)C(O)[C@H](Cc1ccccc1)NC(=O)[C@@H](NC(=O)OCc1ccccc1)C(C)C
IC50 [1]: 3 nM

CC(C)[C@H](NC(=O)[C@@H](NC(=O)C(Cc1ccccc1)CP(=O)(O)[C@@H](Cc1ccccc1)NC(=O)[C@@H](NC(=O)[C@@H](NC(=O)OC(C)(C)C)C(C)C)C(C)C)C(C)C)C(N)=O (stereo partly drawn) (HELM PEPTIDE1{[CC(C)(C)OC(=O)[*:2]].V.V.[O=C(C(Cc1ccccc1)CP(=O)(O)[C@@H](Cc1ccccc1)N[*:1])[*:2]].V.V.[am]}$$$$V2.0)
Ki [5]: 0.04 nM

COC(=O)[C@@H](NC(=O)[C@@H](NC(=O)C[C@H](O)[C@H](Cc1ccccc1)NC(=O)[C@H](C)NC(=O)[C@H](C)NC(=O)[C@@H](N)CO)C(C)C)C(C)C (HELM PEPTIDE1{S.A.A.[O=C(C[C@H](O)[C@H](Cc1ccccc1)N[*:1])[*:2]].V.V.[CO[*:1]]}$$$$V2.0)
Ki [5]: 1200 nM

CC(C)(C)OC(=O)N[C@@H](Cc1ccccc1)[C@@H](O)C[C@@H](Cc1ccccc1)C(=O)N[C@H]1c2ccccc2C[C@H]1O
IC100 (H9 [7]): 200 nM
